SMILES strings stand for the structures.

The text below walks through data of patent US20250351818A1, “PESTICIDAL BAIT COMPOSITION AND PROCESSES RELATED THERETO” (priority 2022, published 2025).

For assay [1], the system named is stunts (corn stunt disease). Put plainly: Field corn, four foliar applications of pesticides solo and in mixture with kasugamycin, incidence of stunts and yield. It counts as in vivo. As to conditions: four foliar applications 7 days apart from V2; 91 days after sowing. The text has this:
Another major problem is corn stunt disease. S. kunkelii, a spiroplasma often referred to as corn stunt spiroplasma and a Maize bushy stunt phytoplasma (MBSP) can both survive in the maize leafhopper (Dalbulus maidis), and it causes corn stunt disease. Foliar use of insecticides can be used to partially control Dalbulus maidis, however, the use of this method to control corn stunt disease is not very successful. kasugamycin (Ksg) is an aminoglycoside antibiotic. However, we have discovered that mixing kasugamycin with pesticides can control the Dalbulus maidis and S. kunkelii at the same time thereby helping to avoid corn stunt disease brought by the vector Dalbulus maidis. The amount of kasugamycin can vary from 20 g ai/ha to 100 g ai/ha in mixture with the insecticides when used in foliar applications, for example, spinetoram and sulfoxaflor at 18 g ai/ha+32 g ai/ha respectively, or spinetoram and methomyl at 18 g ai/ha and 220 g ai/ha, respectively. […]
Four foliar applications of pesticides solo and in mixture with kasugamycin were performed in corn plants in field starting at V2 (2 true-leaves) stage of the crop with 7 days apart. […] The incidence of plants with symptoms of stunts at 53 and 91 days after sowing and the yield were assessed. […]

Assay [2] has as its system phytoplasma and spiroplasma (corn stunt). Kind of assay: Corn field naturally infected, foliar kasugamycin, severity of the stunts. In kind it is in vivo. As to conditions: 100 g ai/ha; for severity of the disease (percent of leaf area infected, visual): 1 application/week for 4 weeks. The source says:
Another major problem is corn stunt disease. S. kunkelii, a spiroplasma often referred to as corn stunt spiroplasma and a Maize bushy stunt phytoplasma (MBSP) can both survive in the maize leafhopper (Dalbulus maidis), and it causes corn stunt disease. Foliar use of insecticides can be used to partially control Dalbulus maidis, however, the use of this method to control corn stunt disease is not very successful. kasugamycin (Ksg) is an aminoglycoside antibiotic. However, we have discovered that mixing kasugamycin with pesticides can control the Dalbulus maidis and S. kunkelii at the same time thereby helping to avoid corn stunt disease brought by the vector Dalbulus maidis. The amount of kasugamycin can vary from 20 g ai/ha to 100 g ai/ha in mixture with the insecticides when used in foliar applications, for example, spinetoram and sulfoxaflor at 18 g ai/ha+32 g ai/ha respectively, or spinetoram and methomyl at 18 g ai/ha and 220 g ai/ha, respectively. However, with the bait composition the amount of kasugamycin to use in the pesticidal bait compositions, based on the total weight of a pesticidal bait composition, is from about 2.0 weight percent to about 0.01 weight percent, preferably from about 1.0 weight percent to about 0.1 weight percent, and even more preferably from about 0.5 weight percent to about 0.25 weight percent. Of course, the kasugamycin weight percent will vary depending on various factors such as, local environmental conditions and pest control effects desired, among other factors.
A corn field with plants naturally infected by both phytoplasma and spiroplasma was sprayed with kasugamycin at 100 g ai/ha. The plants with 4 true-leaves were sprayed with 1 application/week for 4 weeks. Fifteen days after the first application and 15 days after the fourth spraying the severity of the stunts were evaluated visually, considering the percent of leaf area infected (showing symptoms). […]

Regarding `C[C@H]1O[C@H](O[C@H]2[C@H](O)[C@@H](O)[C@@H](O)[C@H](O)[C@@H]2O)[C@@H](N)C[C@@H]1NC(=N)C(=O)O` [kasugamycin], the “reduction of the progression of the disease in comparison with the untreated” value in assay [1] was determined as 11%. Further, the figures for the “severity of the disease (percent of leaf area infected, visual)” value in assay [2] (15 days after the fourth application) and in assay [2] (fifteen days after the first application) were 43% and 27%, respectively. The “reduction of the progression of the disease vs untreated” value in assay [2] (15 days after the fourth application (43% vs 54% untreated)) was found to be 20%.
